In US4908363A, “Imidazole derivatives” (Hoffmann-La Roche Inc., priority 1987, dated 1990):

Legend:
[1] = Acute toxicity, single oral administration; conditions: mouse, in vivo; single oral administration to mice
Excerpt: The following Table II contains data concerning the acute toxicity of the above three compounds (LD50 in the case of single oral administration to mice).

[2] = Inflammation-inhibiting activity in established Mycobacterium butyricum arthritis (paw volume, plasma fibrinogen, body weight); assay type: in vivo, male rats; conditions: by intubation each day over 7 days; for Paw volume change: vehicle 0.46 ± 0.08; for Body weight change: vehicle 13.2 ± 1.8; for Plasma Fibrinogen: vehicle 1233 ± 56
Description: Representative compounds of formula I were tested for their inflammation-inhibiting properties in the animal test described hereinafter:
0.1 ml of a 0.5% (weight/volume) suspension of heat-killed and dried Mycobacterium butyricum in heavy mineral oil, containing 0.2% digitionin, is injected into the base of the tail of male rats (120-140 g). The animals are housed individually and receive feed and water ad libitum. The thus-produced arthritis is allowed to develop without treatment during 21 days. Then on the one hand the body weight of the animals is determined and on the other hand the volumes of their two hind paws (by immersing the paws in a mercury plethysmograph up to the height of the lateral malleolus). Thereupon, the animals are divided into groups each comprising six animals in each case of approximately the same average volumes of the hind paws. The substance to be investigated is then administered to them by intubation each day over a period of 7 days. At the end of the treatment period, body weight and volumes of the hind paws are again determined and the changes over the treatment period is calculated. Subsequently, the animals are killed and plasma samples are removed from them in order to determine the fibrinogen in accordance with Exner et al., 1979 (Amer. J. Clin. Path.) after precipitation with ammonium sulfate.
The results determined for three representative compounds of formula I, in the animal test described hereinbefore, are set forth in the following Table I.

[3] = Edema-inhibiting properties in carrageen pleuritis; assay type: in vivo, male rats; conditions: 1 hour before and 5 hours after carrageen, 24 hours
Description: were tested for their edema-inhibiting properties in the animal test described hereinafter:
A pleuritis is produced in male rats (230-250 g), which receive feed and water ad libitum, by the injection of 0.2 ml of a 1% solution of carrageen in sterile, pyrogen-free sodium chloride solution into the right pleural cavity. The substance to be investigated, suspended in an aqueous vehicle (containing 0.5% carboxymethylcellulose, 0.9% sodium chloride, 0.37% Tween 80 and 0.86% benzyl alcohol), or the vehicle alone, are administered by intubation to the animals 1 hour before and 5 hours after the carrageen injection. Twenty-four (24) hours after the carrageen injection, the animals are killed by decapitation, left to bleed out and the pleural cavity is exposed by cutting through the ribs on both sides of the sternum. The exudate is removed from the pleural cavity by means of a pipette and its volume is determined. Thereupon, the pleural cavity is washed once with phosphate-buffered sodium chloride solution containing fetal bovine serum (1:1) and the wash solution is combined with the exudate. The total number of cells in the pleural cavity is determined using a "Coulter Counter" which is calibrated so that red blood corpuscles are not counted. Cell smears on glass plates can be produced directly from the exudate, fixed in methanol and colored for the differential counting of polymorphonuclear leucocytes (PMN) and macrophages; a total of 200 PMN and macrophages can be counted and the results expressed as a percentage of each type of cell present in the pleural exudate.

## Cc1nccn1N=Cc1cc(C(C)(C)C)c(O)c(C(C)(C)C)c1 [B, 1-(4-hydroxy-3,5-di-tert.butylbenzylideneamino)-2-methylimidazole]
[1]
  LD50: > 1000 mg/kg
[2]; 22 μmol/kg
  Paw volume change: -0.77 ± 0.05 mL
  Body weight change: 28.2 ± 1.4 g
  Plasma Fibrinogen: 405 ± 126 mg/dL
[2]; 66 μmol/kg
  Paw volume change: -0.84 ± 0.12 mL
  Body weight change: 35.3 ± 1.8 g
  Plasma Fibrinogen: 75 ± 15 mg/dL

## CC(C)(C)c1cc(C=Nn2ccnc2)cc(C(C)(C)C)c1O [C, 1-(4-hydroxy-3,5-di-tert.-butylbenzylideneamino)imidazole]
[1]
  LD50: > 1000 mg/kg
[2]; 66 μmol/kg
  Paw volume change: -0.92 ± 0.08 mL
  Body weight change: 31.2 ± 2.0 g
  Plasma Fibrinogen: 544 ± 97 mg/dL

## CC(C)(C)c1cc(CNn2ccnc2)cc(C(C)(C)C)c1O [Compound A, 1-(4-Hydroxy-3,5-di-tert.butylbenzylamino)imidazole]
[1]
  LD50: > 1000 mg/kg
[2]; 66 μmol/kg
  Paw volume change: -0.18 ± 0.08 mL
  Body weight change: 30.5 ± 1.2 g
  Plasma Fibrinogen: 1040 ± 75 mg/dL
[3]; 30 mg/kg p.o.
  % Chance compared with controls, Exudate volume: -51%
  % Chance compared with controls, Number of cells: -12%
[3]; 50 mg/kg p.o.
  % Chance compared with controls, Exudate volume: -60%
  % Chance compared with controls, Number of cells: -14%
[3]; 100 mg/kg p.o.
  % Chance compared with controls, Exudate volume: -68%
  % Chance compared with controls, Number of cells: -23%

## Cc1nccn1NCc1cc(C(C)(C)C)c(O)c(C(C)(C)C)c1 [D, 1-(4-hydroxy-3,5-di-tert.-butylbenzylamino)-2-methylimidazole]
[3]; 30 mg/kg p.o.
  % Chance compared with controls, Exudate volume: -29%
  % Chance compared with controls, Number of cells: -6%
[3]; 100 mg/kg p.o.
  % Chance compared with controls, Exudate volume: -60%
  % Chance compared with controls, Number of cells: -22%

## CCCc1nccn1NCc1cc(C(C)(C)C)c(O)c(C(C)(C)C)c1 [E, 1-(4-hydroxy-3,5-di-tert.butylbenzylamino)-2-propylimidazole]
[3]; 30 mg/kg p.o.
  % Chance compared with controls, Exudate volume: -39%
  % Chance compared with controls, Number of cells: +4%
[3]; 100 mg/kg p.o.
  % Chance compared with controls, Exudate volume: -73%
  % Chance compared with controls, Number of cells: -21%
